From ChEMBL document CHEMBL4364243, “Structure-activity relationships of potentiators of the antibiotic activity of clarithromycin against Escherichia coli” (2019)
Values after ≈ are worked out from the molar mass of the structure shown. Active and inactive are the calls of the source. The rule behind the calls is not given here. Bridge positions count the residues as written; N and C are the ends. Square brackets hold non-standard residues; d marks the D form. Peptide text beside a SMILES is read from it. * marks the point of attachment. X1 = CC[C@H](C)CCCCC(=O)*; βNA = c1ccc2cc(N*)ccc2c1; Dab = NCC[C@H](N)C(=O)O

What was measured:
Escherichia coli [1] = assay: Potentiation of clarithromycin-induced antibacterial activity against Escherichia coli ATCC 25922 assessed as clarithromycin MIC at 12.5 ug/ml incubated for 24 hrs by microtiter plate reader analysis (reference value: 64 microg/ml); assay type: functional; settings: ATCC 25922, 24 h
Escherichia coli [2] = assay: Potentiation of clarithromycin-induced antibacterial activity against Escherichia coli ATCC 25922 assessed as fold reduction in clarithromycin MIC at 12.5 ug/ml incubated for 24 hrs in presence of clarithromycin; assay type: functional
Escherichia coli [3] = assay: Antibacterial activity against Escherichia coli ATCC 25922 incubated for 24 hrs by serial dilution method; assay type: functional; settings: ATCC 25922, 24 h
[4] = tested on: Escherichia coli ATCC 25922; assay: Inhibition of efflux pump in CCCP-pretreated Escherichia coli ATCC 25922 assessed as […] by measuring decrease in fluorescence intensity pre-incubated for 5 mins followed by glucose addition by Hoechst 33342 staining based fluorescence assay
Escherichia coli [5] = assay: Induction of inner membrane permeabilization in Escherichia coli ATCC 25922 assessed as increase in propidium iodide uptake at 1/32 to 1/2 times MIC by PI staining based flow cytometric analysis; assay type: organism-based
[6] = tested on: Escherichia coli ATCC 25922; assay: Induction of outer membrane permeabilization/inhibition of AcrAB-TolC efflux pump in Escherichia coli ATCC 25922 assessed as increase in NPN uptake incubated for 10 mins in dark by fluorescence assay
Pseudomonas aeruginosa = assay: Potentiation of levofloxacin-induced antibacterial activity against Pseudomonas aeruginosa assessed as concentration required to decrease levofloxacin MIC by 8 fold in presence of levofloxacin; assay type: functional; settings: read-out: MEC
Escherichia coli [7] = assay: Potentiation of calrithromycin-induced antibacterial activity against Escherichia coli ATCC 25922 assessed as clarithromycin MIC at 50 ug/ml incubated for 24 hrs by microtiter plate reader analysis (reference value: 64 microg/ml); assay type: functional; settings: ATCC 25922, 24 h
Escherichia coli [8] = assay: Potentiation of clarithromycin-induced antibacterial activity against Escherichia coli ATCC 25922 assessed as fold reduction in clarithromycin MIC at 50 ug/ml incubated for 24 hrs in presence of clarithromycin; assay type: functional
[9] = tested on: Escherichia coli ATCC 25922; assay: Induction of outer membrane permeabilization/inhibition of AcrAB-TolC efflux pump in Escherichia coli ATCC 25922 assessed as increase in NPN uptake at 1/32 to 1/2 times MIC incubated for 10 mins in dark by fluorescence assay

SMILES | MIC (Escherichia coli [1]) | fold change (FC) (Escherichia coli [2]) | MIC (Escherichia coli [3]) | also measured
NCCC[C@@H](N)C(=O)NC(CCc1ccccc1)CCc1ccccc1 | 32 µg/mL | 2 | > 100 µg/mL | 
NCCC[C@H](N)C(=O)NC(c1ccccc1)c1ccccc1 | 64 µg/mL | 1 | > 100 µg/mL | 
NC[C@@H](N)CCC(=O)NC(CCc1ccccc1)CCc1ccccc1 | 32 µg/mL | 2 | 100 µg/mL (≈ 283 µM) | 
CN(C(=O)[C@@H](N)CCCN)C(CCc1ccccc1)CCc1ccccc1 | 32 µg/mL | 2 | > 100 µg/mL | 
NCC[C@H](N)CNC(CCc1ccccc1)CCc1ccccc1 | 16 µg/mL | 4 | 100 µg/mL (≈ 307 µM) | 
NCCC[C@H](N)CNC(CCc1ccccc1)CCc1ccccc1 | 8 µg/mL | 8 | 25 µg/mL (≈ 73.6 µM) | 
NCC[C@H](N)CCNC(CCc1ccccc1)CCc1ccccc1 | 2 µg/mL | 32 | 100 µg/mL (≈ 295 µM) | inhibition [4]: Dose-dependent effect; Activity (Escherichia coli [5]): inactive; Activity [6]: Dose-dependent effect
N=C(N)NCCC[C@H](NC(=O)[C@@H](N)Cc1ccccc1)C(=O)Nc1ccc2ccccc2c1 [PABETAN] (H-Phe-Arg-βNA) |  |  | > 100 µg/mL | minimal effective concentration (Pseudomonas aeruginosa): 10 µg/mL; MIC (Escherichia coli [7]): 16 µg/mL; fold change (FC) (Escherichia coli [8]): 4
CN(C(=O)[C@@H](N)CCCN)C(Cc1ccccc1)Cc1ccccc1 | 32 µg/mL | 2 | > 100 µg/mL | 
NCC[C@H](N)CC(=O)NC(CCc1ccccc1)CCc1ccccc1 | 4 µg/mL | 16 | 100 µg/mL (≈ 283 µM) | 
NCCC[C@H](NC(=O)[C@@H](N)Cc1ccccc1)C(=O)Nc1ccc2ccccc2c1 |  |  |  | minimal effective concentration (Pseudomonas aeruginosa): 5 µg/mL
N=C(N)NCCC[C@H](N)C(=O)NC(CCc1ccccc1)CCc1ccccc1 | 32 µg/mL | 2 | > 100 µg/mL | 
CNCCC[C@H](N)C(=O)NC(CCc1ccccc1)CCc1ccccc1 | 64 µg/mL | 1 | 100 µg/mL (≈ 272 µM) | 
NCCC[C@@H](N)C(=O)N[C@H](CCc1ccccc1)COc1ccc(Cl)cc1 |  |  |  | minimal effective concentration (Pseudomonas aeruginosa): 5 µg/mL
CC[C@H](C)CCCCC(=O)N[C@@H](CCN)C(=O)N[C@H](C(=O)N[C@@H](CCN)C(=O)N[C@H]1CCNC(=O)[C@H]([C@@H](C)O)NC(=O)[C@H](CCN)NC(=O)[C@H](CCN)NC(=O)[C@H](CC(C)C)NC(=O)[C@@H](Cc2ccccc2)NC(=O)[C@H](CCN)NC1=O)[C@@H](C)O (X1-[Dab]T[Dab][Dab][Dab][dF]L[Dab][Dab]T; lactam 4-C) |  |  | 1.56 µg/mL (≈ 1.3 µM) | Activity (Escherichia coli [5]): Active; Activity [9]: Active
CC[C@H]1OC(=O)[C@H](C)[C@@H](O[C@H]2C[C@@](C)(OC)[C@@H](O)[C@H](C)O2)[C@H](C)[C@@H](O[C@@H]2O[C@H](C)C[C@H](N(C)C)[C@H]2O)[C@](C)(OC)C[C@@H](C)C(=O)[C@H](C)[C@@H](O)[C@]1(C)O [CLARITHROMYCIN] |  |  | 64 µg/mL (≈ 85.6 µM) | 
NC[C@@H](N)CCNC(CCc1ccccc1)CCc1ccccc1 | 32 µg/mL | 2 | 100 µg/mL (≈ 307 µM) | 
CN(C(=O)[C@@H](N)CCCN)C(c1ccccc1)c1ccccc1 | 32 µg/mL | 2 | > 100 µg/mL | 
NC[C@@H](N)CC(=O)NC(CCc1ccccc1)CCc1ccccc1 | 64 µg/mL | 1 | 200 µg/mL (≈ 589 µM) | 
NCCC[C@@H](N)C(=O)N[C@H](CCc1ccccc1)C(=O)Nc1cnc2ccccc2c1 |  |  |  | minimal effective concentration (Pseudomonas aeruginosa): 10 µg/mL
NCCC[C@@H](N)C(=O)N[C@H](CCc1ccccc1)CSc1ccc(Cl)cc1 |  |  |  | minimal effective concentration (Pseudomonas aeruginosa): 1.25 µg/mL
NCC[C@H](N)C(=O)NC(CCc1ccccc1)CCc1ccccc1 | 32 µg/mL | 2 | 100 µg/mL (≈ 295 µM) | 
CN(C)CCC[C@H](N)C(=O)NC(CCc1ccccc1)CCc1ccccc1 | 64 µg/mL | 1 | > 100 µg/mL | 
NCCC[C@@H](N)C(=O)N[C@H](CCc1ccccc1)C(=O)Nc1ncc(C(=O)Nc2cnc3ccccc3c2)o1 |  |  |  | minimal effective concentration (Pseudomonas aeruginosa): 5 µg/mL
NCCC[C@H](N)C(=O)NC(Cc1ccccc1)Cc1ccccc1 | 32 µg/mL | 2 | > 100 µg/mL | 
COc1ccc(CN2CCN(C(CCc3ccccc3)CCc3ccccc3)CC2)cc1 | 64 µg/mL | 1 | > 100 µg/mL | 
NCCC[C@H](N)C(=O)NC(CCc1ccccc1)CCc1ccccc1 | 16 µg/mL | 4 | > 100 µg/mL | 
NC[C@@H](N)CCCNC(CCc1ccccc1)CCc1ccccc1 | 4 µg/mL | 16 | 25 µg/mL (≈ 73.6 µM) | 
CN1CCN(C(CCc2ccccc2)CCc2ccccc2)CC1 | 64 µg/mL | 1 | > 100 µg/mL | 
